Test results as given in patent US7033582B2 (Teva Pharmaceutical Industries, Ltd., priority 2000, dated 2006).
Entries after “also recorded” stand apart in the source; their conditions may differ. Like-named read-outs stand apart in the source and are kept apart here.

What was measured:
[1] = system: EAE; details: in vivo; cited from earlier work
[2] = system: MMP-9; assay: MMP enzyme activity in gelatin zymography, test agent in wash and reaction buffer; format: biochemical, Baby Hamster Kidney (BHK) cells and human T lymphocytes; details: agent in incubation buffers during zymogram development; MMP-9 from BHK cells or T lymphocytes
Text: The analysis of cell conditioned medium in zymography is a reflection of the amount of MMPs that was produced by the particular culture. […] An inhibitor of MMP activity prevents gelatin degradation by gelatinases and the resultant size of the band of gelatinases would be smaller as compared to that obtained in the absence of inhibitors.

[3] = system: MMP-9 production by monocytes; details: after 1 day of treatment
Description: To produce monocyte-enriched cultures, 2×10^5 PBMC were suspended in 100 μl of AIM-V medium and placed into each well of a 96-well plate. One hour after, floating cells were removed to leave behind adherent monocytes. Fresh 100 μl of AIM-V was added per well and cultures were kept at 37° C.
Supernatant was collected, mixed in a 3.1 ratio (v/v) with 4× gel-loading SDS buffer, and used in zymographic assays. Similarly, for monocytes in wells of 96-well plates, conditioned medium was collected, microfuged, and mixed with 4× gel-loading SDS buffer.
Zymography is essentially SDS-PAGE except that gelatin is also added to the gel (77, 82). After proteins were resolved based on molecular weight in SDS-PAGE, the gel was washed in a Triton X-100 buffer in order to remove SDS which thus allows protein renaturation. In a calcium-containing “reaction buffer” (77), gelatinases (MMP-2 and -9) degraded gelatin in their immediate vicinity (other members of MMPs would also be detected if present in high amounts). Following staining in Coommasie blue, which binds all proteins, and destaining , areas containing gelatinases appeared as clear bands against a dark background, since the gelatin in its immediate vicinity has been degraded. The size of the MMP bands was a reflection of the amount of MMP that was produced by cells, and this was documented by NIH image analysis software.

[4] = system: lymphocytes from relapsing-remitting multiple sclerosis patients; details: patients on Copolymer 1 compared to untreated multiple sclerosis patients; cited from earlier work
[5] = system: T lymphocytes; assay: Migration assay across fibronectin-coated Boyden chamber; format: cell-based, human
Description: (§1) Cells were left for 69 h at 37° C., then collected, counted and resuspended in fresh AIM-V at density of 500,000 cells per ml. […] Thereafter, 500 μl (250,000 cells) of the suspension was taken for migration assays described below. Alternatively, 100 μl (50,000 cells) of cell suspension was added to each individual well of a 96-well plate already containing microglia or U937 monocytoid cells (see below).
To address the migration capacity of T lymphocytes, 2×10^5 T lymphocytes in 500 μl of 2.5% fetal calf serum (FCS) containing AIM-V were seeded into the top compartment of a Boyden chamber (Collaborative Biomedical Products, Bedford, Md.). This chamber consists of two compartments separated by a polycarbonate membrane filter (9 mm in diameter, with 3 μm pores) precoated on its upper surface with fibronectin. Fibronectin was employed to simulate the basal lamina.
The bottom compartment of the migration chamber contained 10% FCS-supplemented AIM-V; the higher concentration of FCS in the bottom chamber served as a directional gradient (77). After 5 h at 37° C., the content of the lower chamber was collected, and the number of migrated T lymphocytes was counted with the Coulter Counter Z1.

[6] = system: MHC class II molecules; details: irrespective of MHC restriction, dose-dependent; cited from earlier work
[7] = system: CXCR3 and CXCR4 on U937 cells; details: 25 μg/ml, 1 or 3 days
Text: Chemokine and chemokine receptor expression are currently recognized to be important mechanisms that regulate the influx of leukocytes into the CNS. Notable is the up-regulation of the chemokine IP-10 and its receptor CXCR3 in the lesions of multiple sclerosis patients (74).

[8] = system: experimental GVHD; details: higher doses and/or more frequent administration; mice; cited from earlier work
[9] = system: T lymphocyte - adult human microglia co-culture; details: added at the time of co-culture instead of pretreatment
Description: as §1
Adult human microglia were isolated from the resected brain tissue of patients undergoing surgical resection to treat intractable epilepsy. […] Cells were used for interactions with T lymphocytes in a manner identical to that described for their fetal counter parts.
(§2) Cytokine protein levels in the conditioned medium of microglia-T lymphocyte co-cultures were measured using enzyme-linked immunoabsorbent assay (ELISA) kits bought from BioSource International (Montreal, Canada).

[10] = system: MMP-9 production by T lymphocytes; assay: MMP-9 production by anti-CD3 activated T lymphocytes (zymography of conditioned medium); format: cell-based, human; details: 25 μg/ml, for 1, 2 or 3 d
Description: (§3) Heparinized blood was collected from normal volunteers, and subjected to Ficoll-Hypaque (Pharmacia Biotech, Mississauga, Ontario) centrifugation to obtain peripheral blood mononuclear cells (PEMNCs) as described previously (15). After two washes, cells were suspended at a density of 1–2 million/ml in horizontal T-25 flasks (Nunc, Becton Dickinson, Mississauga, Ontario) in the serum free medium, AIM-V (GIBCO/BRL), to which 1 ng/ml of an anti-CD3 antibody (OKT3, compliments of Jack Antel, Montreal, Canada) was added. Three hours after the anti-CD3 addition, the T-25 flasks were stood upright from their horizontal position in order to […] monocytes that had adhered. Floating cells, which were mostly lymphocytes, were left for a period of 72 hours at 37° C. […] Henceforth, given that the majority of cells in the MNC population are T lymphocytes, these will be referred to as T lymphocytes.
as §1

[11] = system: T lymphocytes; details: for total number of cells after 72 h: control 24±2
Description: as §3, §1

[12] = system: T-cell responses to MBP; details: dose-dependent; cited from earlier work
[13] = system: T lymphocyte - U937 co-culture; details: pretreatment of the PMA/IFNγ-treated U937 cells instead of T lymphocytes
Description: as §1
A human promonocytoid cell line, U937, was also employed. Members of this cell line become microglia-like, as assessed by morphology and expression of cell surface molecules, when treated sequentially with 50 ng/ml of a protein kinase C activator, phorbol-12-myristate-13-acetate (PMA) (time 0–48) and 100 U/ml interferon-γ (IFNγ) (from 48–72 h).
Cells were used 1–3 days after the IFNγ treatment. As with microglia, 50,000 T lymphocytes in AIM-V was added to individual wells of a 96-well plate already containing 25,000 PMA/IFNγ-treated U937 cells, and conditioned medium was collected after 24 h of co-cultures.
as §2

With `C=CC[C@H](C(=O)NO)[C@@H](CC(C)C)C(=O)N[C@@H](Cc1ccccc1)C(=O)NC` [BB-1101] as the compound, how does the “incidence and severity of EAE” value [1] read?
Its value is “alleviate”.

With `CNC(=O)[C@H](Cc1c[nH]c2ccccc12)NC(=O)[C@@H](CC(=O)NO)CC(C)C` [GM6001] as the compound, how does the “incidence and severity of EAE” value [1] read?
Its value is “alleviate”.

Which “incidence and severity of EAE” value [1] does the source give for `CNC(=O)[C@@H](NC(=O)[C@@H](CC(=O)NO)CC(C)C)C(C)(C)C` [Ro31-9790] here?
Its value is “alleviate”.

Which “inhibition of MMP-9 enzymatic activity (size of gelatinase band in zymogram)” value (from here on “inhibition of MMP-9 enzymatic activity”) [2] does the source give for `c1cnc2c(c1)ccc1cccnc12` [phenanthroline] here?
Its value is “inhibit MMP activity”.

Which “monocyte production of MMP-9” value [3] does the source give for “L-glutamic acid polymer with L-alanine, L-lysine and L-tyrosine, acetate (salt) [Copolymer 1]” here?
Its value is “unaffected”.

And the “capacity of lymphocytes to transmigrate across a fibronectin barrier” value [4]?
Its value is “significantly reduced”.

And the “migration rate of pre-treated T lymphocytes versus controls” value ([5]; 10 ng/ml MCP-1 or MCP-3 in bottom chamber as chemotactic signal)?
The value was “did not differ”.

What about the “migration of T lymphocytes across fibronectin barrier compared to controls” value ([5]; 25 μg/ml pretreatment for 1, 2 or 3 days) of the same compound?
Its value is “did not inhibit; also recorded: did not affect”.

And the “transmigration of activated T lymphocytes” value ([5]; 3-day pretreatment, various concentrations 1 to 50 μg/ml)?
The value was “did not affect”.

And the “binding to antigen presenting cells / MHC class II molecules” value [6]?
Its value is “binds”.

What about the “CXCR4 expression on U937 cells” value [7] of the same compound?
Its value is “does not affect”.

And the “experimental GVHD” value [8]?
The value was “prevent”.

And the “reducing effect on cytokine production” value [9]?
The value was “does not occur”.

And the “production of MMP-9 by T lymphocytes compared to controls” value [10]?
Its value is “did not affect”.

What about the “number or size of T lymphocyte aggregates after anti-CD3 treatment (proliferation)” value [11] of the same compound?
Its value is “does not decrease”.

What about the “total number of cells after 72 h” value ([11]; 5 μg/ml) of the same compound?
The value was 26±1 ×10^3.

What about the “total number of cells after 72 h” value ([11]; 25 μg/ml) of the same compound?
The value was 26±2 ×10^3.

What about the “total number of cells after 72 h” value ([11]; 50 μg/ml) of the same compound?
The value was 22±1 ×10^3.

And the “in vitro T-cell responses to MBP” value [12]?
The value was “inhibited”.

What about the “inhibition of MMP-9 enzymatic activity” value [2] of the same compound?
The value was “dose-dependently reduced; also recorded: inhibits”.

And the “cytokine production in subsequent T lymphocyte - U937 interactions” value [13]?
The value was “did not influence”.

For “TIMP-1: positive control shown to inhibit MMP activity in the zymography assay”, which “inhibition of MMP-9 enzymatic activity” value [2] is on record?
Its value is “inhibit MMP activity”.
